According to US5362740A, “Dihydrobenzofuran carboxamides and process for their preparation” (Farmitalia Carlo Erba S.r.l., priority 1990, dated 1994):

How the values were obtained:
[1] = target: T1, 5HT3 receptor (Rattus norvegicus, UniProt P35563); assay: Inhibition of the Bezold-Jarisch chemoreflex evoked by 5-HT in the anesthetized rat (in vivo 5HT3 antagonist activity); design: evoked by 5-HT in the anesthetised rat; from tissue; host or cells: whole anesthetized rat (in vivo); conditions: 5-HT 20 μg/kg I.V.; for % inhibition: mean ± S.E.M. from 6 animals, *p < 0.01 vs controls (Dunnett's test); for ED50: iv, I.V., anesthetized rat, read-out: ED50 (limits)
T1 sequence (P35563 24-483): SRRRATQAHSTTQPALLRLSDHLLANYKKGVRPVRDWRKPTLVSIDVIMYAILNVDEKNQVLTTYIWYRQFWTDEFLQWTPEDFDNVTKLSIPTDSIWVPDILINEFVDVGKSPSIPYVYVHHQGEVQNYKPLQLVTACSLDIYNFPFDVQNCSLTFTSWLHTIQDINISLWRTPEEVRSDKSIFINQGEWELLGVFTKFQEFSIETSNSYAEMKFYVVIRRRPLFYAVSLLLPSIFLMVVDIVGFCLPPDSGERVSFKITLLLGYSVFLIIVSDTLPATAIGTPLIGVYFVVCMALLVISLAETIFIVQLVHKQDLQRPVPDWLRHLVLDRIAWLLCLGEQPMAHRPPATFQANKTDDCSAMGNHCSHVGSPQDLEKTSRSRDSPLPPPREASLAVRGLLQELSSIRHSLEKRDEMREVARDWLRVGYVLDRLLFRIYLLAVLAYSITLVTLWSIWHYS
Experimental: Ther. 248, 197-201 (1989).
Inhibition of the Bezold-Jarisch reflex elicited by 5-HT (20 μg/
Values are mean ± S.E.M. from 6 animals

[2] = target: T1, 5HT3 receptor; assay: Inhibition of the binding of ^3 H-GR65630; 5-HT3 binding affinity for rat entorhinal cortex; design: labeled in the entorhinal cortex of the rat brain; from tissue; host or cells: rat brain entorhinal cortex; conditions: for fitting model of interaction / displacement of ^3 H-GR 65630: rat entorhinal cortex
[3] = target: 5-HT3 receptor; assay: as above; conditions: [^3 H] GR 65630 labeled 5HT3 sites; rat entorhinal cortex; two site non-linear fitting, low

Cc1nccn1CC1CCc2c(c3ccccc3n2C)C1=O (racemic) [Ondansetron, (±)-1,2,3,4-tetrahydro-9-methyl-3-(2-methylimidazol-1-yl-methyl)-carbazol-4-one, reference compound]
% inhibition ([1]; 1 μg/kg I.V.): 32.86 ± 8.58%
% inhibition ([1]; 3 μg/kg I.V.): 58.42 ± 3.89%
% inhibition ([1]; 10 μg/kg I.V.): 81.21 ± 1.82%
ED50 [1]: 2.25 µg/kg
fitting model of interaction / displacement of ^3 H-GR 65630 [2]: two site non-linear fitting model

CN1C2CCCC1CC(NC(=O)c1cc(Cl)c(N)c3c1OCC3)C2 (stereo not drawn) [FCE 27270, 4-amino-5-chloro-N-(9-methyl-9-azabicyclo[3.3.1]non-3-yl)-2,3-dihydrobenzo[b]furan-7-carboxamide]
Ki [3]: 39 nM
% inhibition ([1]; 0.1 μg/kg I.V.): 37.25 ± 2.77%
% inhibition ([1]; 0.3 μg/kg I.V.): 54.09 ± 3.39%
% inhibition ([1]; 1 μg/kg I.V.): 89.11 ± 3.39%
ED50 [1]: 0.2 µg/kg
Ki [2]: 0.092 nM
fitting model of interaction / displacement of ^3 H-GR 65630 [2]: two site non-linear fitting model

CN1C2CCC1CC(NC(=O)c1cc(Cl)c(N)c3c1OCC3)C2 (stereo not drawn) [FCE 27271, 4-amino-5-chloro-N-(8-methyl-8-azabicyclo[3.2.1]oct-3-yl)-2,3-dihydrobenzo[b]furan-7-carboxamide]
Ki [3]: 96.2 nM
% inhibition ([1]; 0.1 μg/kg I.V.): 23.83 ± 5.50%
% inhibition ([1]; 0.3 μg/kg I.V.): 55.69 ± 4.05%
% inhibition ([1]; 1 μg/kg I.V.): 82.54 ± 2.33%
ED50 [1]: 0.81 µg/kg
Ki [2]: 0.833 nM
fitting model of interaction / displacement of ^3 H-GR 65630 [2]: two site non-linear fitting model

CN1C2CCC1CC(OC(=O)c1cc(Cl)cc(Cl)c1)C2 (stereo not drawn) [MDL 72222, reference compound]
fitting model of interaction / displacement of ^3 H-GR 65630 [2]: one site non-linear fitting

CCN(CC)CCNC(=O)c1cc(Cl)c(N)cc1OC [Metoclopramide, reference compound]
fitting model of interaction / displacement of ^3 H-GR 65630 [2]: one site non-linear fitting
